The subject of data set [1] is Fusarium proliferatum. The experiment in a line: Example I: production of fumonisin FB1 by Fusarium proliferatum (microtitre plates). Format: cell-based. The following applies: 120 h.
Data set [2] has as its system Alternaria solani. As to the kind of experiment: Example M: in vivo test on Alternaria solani (leaf blotch disease/tomato/protective). The following applies: 168 h, tomato, protective, 500 ppm active substance, assessed 7 days after inoculation, read-out: % Wirkungsgrad (activity level). The essentials:
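Alternaria solani infection on tomato scored 7 days post-inoculation. Before inoculation, young plants received a protective spray at the stated application dose; formulation was compound mixed with N,N-dimethylformamide and emulsifier, water-diluted.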

A short description of data set [3]: physchem.
Data set [4] concerns Fusarium graminearum. As to the kind of experiment: microbe, parasite or virus in culture. Format: cell-based.
The subject of data set [5] is Sphaerotheca fuliginea. The experiment in a line: Example L: in vivo test on Sphaerotheca fuliginea (powdery mildew on cucumber/protective). The following applies: Podosphaera fuliginea, 168 h, cucumber, protective, assessment 7 days after inoculation, read-out: % Wirkungsgrad. On the procedure:
Solvent: 49 parts by weight N,N-dimethylformamide Emulsifier: 1 part by weight alkylaryl polyglycol ethers For the preparation of a suitable active substance preparation, 1 part by weight of active substance is mixed with the stated quantities of solvent and emulsifier and the concentrate is diluted to the desired concentration with water. For the testing for protective activity, young cucumber plants are sprayed with the active substance preparation at the stated application dosage. One day after the treatment, the plants are inoculated with a spore suspension of Sphaerotheca fuliginea. Next, the plants are placed in a greenhouse at 70% relative atmospheric humidity and a temperature of 23° C. 7 days after the inoculation, the assessment takes place.

Where [6] appears, read: Fusarium proliferatum growth, OD 620, 5 days, read-out: % Inhibition des Pilzwachstums bei 50 μM.
Where [7] appears, read: Fusarium proliferatum, 5 days at 20° C., HPLC-MS/MS, read-out: % Inhibition der FB1 produktion bei 50 μM.
Where [8] appears, read: 72 h, read-out: % Inhibition des Pilzwachstums bei 50 μM.
Setting [9] is: 168 h, read-out: % Inhibition der DON/AcDON produktion bei 50 μM.
Setting [10] is: LogPA (logP of the stated pure compound or, in a mixture, of the main isomer, 1-substituted 3-aryl-1H-pyrazole).

Where two headings read alike, the source gives them in different places.

Usually chromatographic logP stands for a lipophilicity value derived from retention on a column. Regarding `CCC(=O)Nc1cc(-c2cn(C3CCN(C(=O)OC(C)(C)C)CC3)nc2-c2ccc(F)cc2)ccn1` [Compound 193], the results for the inhibition at 50 µM in data set [1] (setting [6]) and in data set [1] (setting [7]) were 0% and 85%, respectively. Besides, the pest or weed control at 500 ppm in data set [2] was 93%. The chromatographic logP in data set [3] (LogPA) worked out at 3.03.
As for `COCC(=O)Nc1cc(-c2cn(CC3CC3(Cl)Cl)nc2-c2ccc(F)cc2)ccn1` (stereo not drawn) [Compound 245], the inhibition at 50 µM in data set [4] (setting [8]) stood at 95%; in data set [4] (setting [9]), 99%. The pest or weed control at 500 ppm was 88% in data set [5] and 94% in data set [2]. For the same molecule, the chromatographic logP in data set [3] (LogPA) is 3.22.
For `CC(C)n1cc(-c2ccnc(NC(=O)N(C)C)c2)c(-c2ccc(F)cc2)n1` [Compound 233] the same measures were 100%, 100%, 95%, 90% and 1.6.
For the molecule `COCC(=O)Nc1cc(-c2cn(CC(F)F)nc2-c2ccc(F)cc2)ccn1` [Compound 216], the inhibition at 50 µM in data set [1] (setting [6]) was 97%; in data set [1] (setting [7]), 100%. The pest or weed control at 500 ppm in data set [5] worked out at 89%; in data set [2] it was 95%. Besides, the chromatographic logP in data set [3] (LogPA) was 2.27.
Regarding `Cn1nc(-c2ccc(F)cc2O)c(-c2ccnc(NC(=O)C3CC3)c2)c1OC(F)F` [Compound 258], the inhibition at 50 µM turned out to be 79% in data set [4] (setting [8]) and 98% in data set [4] (setting [9]). Also, the pest or weed control at 500 ppm turned out to be 80% in data set [5] and 95% in data set [2]. Moreover, in data set [3] (LogPA), the chromatographic logP amounted to 2.22.
For `COCC(=O)Nc1cc(-c2cn(CC3CC3)nc2-c2ccc(F)cc2)ccn1` [Compound 223], the inhibition at 50 µM in data set [1] (setting [6]) is 96%; in data set [1] (setting [7]), 100%; in data set [4] (setting [8]), 99%; in data set [4] (setting [9]), 97%. Also, the pest or weed control at 500 ppm was determined as 91% in data set [5] and 90% in data set [2]. Moreover, the chromatographic logP in data set [3] (LogPA) was 2.61.
Turning to `CCOCCn1cc(-c2ccnc(NC(=O)CC)c2)c(-c2ccc(F)cc2)n1` [Compound 326], the results for the inhibition at 50 µM in data set [4] (setting [8]) and in data set [4] (setting [9]) were 107% and 100%, respectively. Moreover, the values for the pest or weed control at 500 ppm in data set [5] and in data set [2] were 94% and 95%, respectively. The chromatographic logP in data set [3] (LogPA) was found to be 2.01.
On to `c1ccc(Oc2ccc(-c3c(-c4ccncc4)cnn3C3CCCCO3)cc2)cc1` (stereo not drawn) [Compound 59, 4-[5-(4-phenoxyphenyl)-1-(tetrahydro-2H-pyran-2-yl)-1H-pyrazol-4-yl]pyridine], for which the values for the inhibition at 50 µM in data set [1] (setting [6]) and in data set [1] (setting [7]) were 0% and 95%, respectively. The chromatographic logP in data set [3] (setting [10]) worked out at 1.88.
As to `CC(C)Cn1cc(-c2ccncn2)c(-c2cccc(Cl)c2)n1` [Compound 5], the inhibition at 50 µM in data set [1] (setting [6]) was determined as 79%; in data set [1] (setting [7]) it was 100%; in data set [4] (setting [8]), 97%; in data set [4] (setting [9]), 100%. Also, the figures for the pest or weed control at 500 ppm in data set [5] and in data set [2] were 70% and 90%, respectively. Besides, the chromatographic logP in data set [3] (setting [10]) came out at 3.27.
In the case of `CC(C)Cn1cc(-c2ccncc2-c2cccc(F)c2)c(-c2ccc(F)cc2)n1` [Compound 229], the inhibition at 50 µM turned out to be 0% in data set [4] (setting [8]) and 97% in data set [4] (setting [9]). In addition, the pest or weed control at 500 ppm worked out at 94% in data set [5] and 95% in data set [2]. In addition, the chromatographic logP in data set [3] (LogPA) was 3.13.
Turning to `CC(C)(C)n1cc(-c2ccncc2)c(-c2ccc(F)cc2)n1` [Compound 58], the inhibition at 50 µM in data set [1] (setting [6]) is 42%; in data set [1] (setting [7]), 89%. Further, in data set [3] (setting [10]), the chromatographic logP is 2.62.
Regarding `CCOCCn1cc(-c2ccnc(NC(=O)C(C)C)c2)c(-c2ccc(F)cc2)n1` [Compound 328], the inhibition at 50 µM came out at 101% in data set [4] (setting [8]) and 100% in data set [4] (setting [9]). Further, the pest or weed control at 500 ppm turned out to be 100% in data set [5] and 95% in data set [2]. The chromatographic logP in data set [3] (LogPA) is 2.32.
Regarding `Fc1ccc(-c2nn(C3CCCCO3)cc2-c2ccnc3[nH]ccc23)cc1` (stereo not drawn) [Compound 20], the inhibition at 50 µM in data set [1] (setting [6]) is 65%; in data set [1] (setting [7]), 100%; in data set [4] (setting [8]), 21%; in data set [4] (setting [9]), 87%. The chromatographic logP in data set [3] (setting [10]) amounted to 2.08.
Take `CCC(=O)Nc1cc(-c2cn(CCOC)nc2-c2ccc(F)cc2)ccn1` [Compound 153, N-{4-[3-(4-fluorophenyl)-1-(2-methoxyethyl)-1H-pyrazol-4-yl]pyridin-2-yl}propanamide]: the inhibition at 50 µM in data set [1] (setting [6]) was 48%; in data set [1] (setting [7]) it was 100%; in data set [4] (setting [8]), 56%; in data set [4] (setting [9]), 100%. Moreover, in data set [2], the pest or weed control at 500 ppm worked out at 90%. In data set [3] (setting [10]), the chromatographic logP was determined as 1.61.
With `CCC(=O)Nc1cc(-c2cn(OC(C)C)nc2-c2ccc(F)cc2)ccn1` [Compound 226], the inhibition at 50 µM in data set [4] (setting [8]) was determined as 85%; in data set [4] (setting [9]), 100%. Also, the pest or weed control at 500 ppm in data set [5] and in data set [2] was 95% each time. This molecule yielded a chromatographic logP in data set [3] (LogPA) of 2.58.
For `N#Cc1cccc(-c2c(-c3ccncc3)cnn2C2CCCCO2)c1` (stereo not drawn) [Compound 60, 3-[4-(pyridin-4-yl)-1-(tetrahydro-2H-pyran-2-yl)-1H-pyrazol-5-yl]benzonitrile], the inhibition at 50 µM in data set [1] (setting [6]) was determined as 92%; in data set [1] (setting [7]) it was 100%. Moreover, the chromatographic logP in data set [3] (setting [10]) is 1.23.
For `CCOCCn1cc(-c2ccnc(NC(=O)CC3CC3)c2)c(-c2ccc(F)cc2)n1` [Compound 329], the results for the inhibition at 50 µM in data set [4] (setting [8]) and in data set [4] (setting [9]) were 104% and 100%, respectively. Besides, the pest or weed control at 500 ppm in data set [5] was determined as 94%; in data set [2], 95%. The molecule also showed a chromatographic logP in data set [3] (LogPA) of 2.48.
Take `Fc1ccc(-c2nn(C3CCCCO3)cc2-c2ccnc3ccccc23)cc1` (stereo not drawn) [Compound 54]: the inhibition at 50 µM in data set [1] (setting [6]) was found to be 47%; in data set [1] (setting [7]), 100%; in data set [4] (setting [8]), 31%; in data set [4] (setting [9]), 85%. Further, the chromatographic logP in data set [3] (setting [10]) amounted to 2.46.
As to `CC(C)C(=O)Nc1cc(-c2cn(C(C)c3ccccc3F)nc2-c2ccc(F)cc2)ccn1` (stereo not drawn) [Compound 232], the inhibition at 50 µM in data set [4] (setting [8]) is 0%; in data set [4] (setting [9]), 80%. In addition, the pest or weed control at 500 ppm in data set [5] was found to be 93%; in data set [2], 95%. Further, in data set [3] (LogPA), the chromatographic logP worked out at 3.41.
In the case of `CCC(=O)Nc1cc(-c2c(-c3ccc(F)cc3O)nn(C)c2OC(F)F)ccn1` [Compound 196], the inhibition at 50 µM came to 25% in data set [1] (setting [6]) and 100% in data set [1] (setting [7]). For the same molecule, in data set [2], the pest or weed control at 500 ppm was found to be 100%. This molecule also returned a chromatographic logP in data set [3] (LogPA) of 2.12.
As to `Cc1nccc(-c2cn(C3CCCCO3)nc2-c2ccc(F)cc2)n1` (stereo not drawn) [Compound 29], the inhibition at 50 µM came out at 34% in data set [1] (setting [6]) and 82% in data set [1] (setting [7]). The pest or weed control at 500 ppm is 70% in data set [5] and 78% in data set [2]. Further, the chromatographic logP in data set [3] (setting [10]) came out at 2.53.
As for `CC(C)Cn1cc(-c2ccnc(NC(=O)Cc3ccccc3)c2)c(-c2ccc(F)cc2)n1` [Compound 191], the inhibition at 50 µM in data set [1] (setting [6]) was determined as 1%; in data set [1] (setting [7]) it was 96%. This molecule also registered a chromatographic logP in data set [3] (LogPA) of 3.54.
On to `CCC(=O)Nc1cc(-c2c(-c3ccc(Cl)cc3F)nn(C)c2SC)ccn1` [Compound 195], for which the inhibition at 50 µM in data set [1] (setting [6]) amounted to 17%; in data set [1] (setting [7]) it was 100%; in data set [4] (setting [8]) it was 0%; in data set [4] (setting [9]), 80%. For the same molecule, the pest or weed control at 500 ppm in data set [2] worked out at 80%. In addition, the chromatographic logP in data set [3] (LogPA) is 2.7.
Consider `Clc1ccc(-c2c(-c3ccncc3)cnn2C2CCCCO2)cc1` (stereo not drawn) [Compound 70, 4-[5-(4-chlorophenyl)-1-(tetrahydro-2H-pyran-2-yl)-1H-pyrazol-4-yl]pyridine], for which the inhibition at 50 µM in data set [1] (setting [6]) worked out at 0%; in data set [1] (setting [7]), 92%. Also, the chromatographic logP in data set [3] (setting [10]) was 1.52.
Regarding `CCOC(=O)Nc1cc(-c2cn(CC(C)C)nc2-c2ccc(F)cc2)ccn1` [Compound 267], the inhibition at 50 µM in data set [4] (setting [8]) turned out to be 59%; in data set [4] (setting [9]), 97%. For the same molecule, the pest or weed control at 500 ppm worked out at 98% in data set [5] and 95% in data set [2]. In data set [3] (LogPA), this molecule yielded a chromatographic logP of 3.11.
In the case of `Fc1ccc(-c2nn(C3CCCCO3)cc2-c2ncnc3[nH]ccc23)cc1` (stereo not drawn) [Compound 66], the inhibition at 50 µM in data set [1] (setting [6]) is 40%; in data set [1] (setting [7]) it was 85%. Moreover, in data set [3] (setting [10]), the chromatographic logP amounted to 1.69.
`COCC(=O)Nc1cc(-c2c(-c3ccc(Cl)cc3F)nn(C)c2SC)ccn1` [Compound 200]: the inhibition at 50 µM in data set [1] (setting [6]) is 1%; in data set [1] (setting [7]), 99%. In data set [2], the pest or weed control at 500 ppm is 93%. In addition, the chromatographic logP in data set [3] (LogPA) was 3.
Consider `FC(F)(F)c1cccc(-c2nn(C3CCCCO3)cc2-c2ccnc3[nH]ccc23)c1` (stereo not drawn) [Compound 50], for which the inhibition at 50 µM in data set [1] (setting [6]) was determined as 8%; in data set [1] (setting [7]), 89%. In addition, the chromatographic logP in data set [3] (setting [10]) came to 2.93.

The record behind these values is patent US20110183978A1, “Phenylpyri(mi)dinylazoles” (Bayer CropScience AG, priority 2009, published 2011).
